What was measured:
[1] = biological target: T1, Prostaglandin G/H synthase 2 (Mus musculus, UniProt Q05769); test: In vitro inhibitory concentration against prostaglandin G/H synthase 2 using freshly harvested mouse peritoneal macrophages
T1 sequence (Q05769 whole entry): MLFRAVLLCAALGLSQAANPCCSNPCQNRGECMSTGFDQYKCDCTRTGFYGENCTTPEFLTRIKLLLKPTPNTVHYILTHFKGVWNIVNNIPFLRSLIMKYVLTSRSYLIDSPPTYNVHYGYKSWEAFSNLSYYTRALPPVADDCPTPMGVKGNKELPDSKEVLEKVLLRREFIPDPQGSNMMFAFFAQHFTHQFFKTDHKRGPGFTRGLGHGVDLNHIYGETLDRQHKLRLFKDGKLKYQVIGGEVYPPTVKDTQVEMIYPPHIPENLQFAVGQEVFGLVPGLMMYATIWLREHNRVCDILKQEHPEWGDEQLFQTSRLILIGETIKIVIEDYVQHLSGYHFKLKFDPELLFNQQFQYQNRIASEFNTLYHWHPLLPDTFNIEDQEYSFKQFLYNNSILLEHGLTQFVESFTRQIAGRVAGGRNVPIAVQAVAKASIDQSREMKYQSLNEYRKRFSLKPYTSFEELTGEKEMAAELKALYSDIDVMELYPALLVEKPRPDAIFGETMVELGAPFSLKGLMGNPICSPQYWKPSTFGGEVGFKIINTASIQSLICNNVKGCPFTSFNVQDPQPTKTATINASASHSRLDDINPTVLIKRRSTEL

[2] = biological target: T2, Prostaglandin G/H synthase 1 (Mus musculus) (UniProt P22437); test: In vitro percentage inhibition against prostaglandin G/H synthase 1 using freshly harvested mouse peritoneal macrophages at 10 ug/mL concentration
T2 sequence (whole entry): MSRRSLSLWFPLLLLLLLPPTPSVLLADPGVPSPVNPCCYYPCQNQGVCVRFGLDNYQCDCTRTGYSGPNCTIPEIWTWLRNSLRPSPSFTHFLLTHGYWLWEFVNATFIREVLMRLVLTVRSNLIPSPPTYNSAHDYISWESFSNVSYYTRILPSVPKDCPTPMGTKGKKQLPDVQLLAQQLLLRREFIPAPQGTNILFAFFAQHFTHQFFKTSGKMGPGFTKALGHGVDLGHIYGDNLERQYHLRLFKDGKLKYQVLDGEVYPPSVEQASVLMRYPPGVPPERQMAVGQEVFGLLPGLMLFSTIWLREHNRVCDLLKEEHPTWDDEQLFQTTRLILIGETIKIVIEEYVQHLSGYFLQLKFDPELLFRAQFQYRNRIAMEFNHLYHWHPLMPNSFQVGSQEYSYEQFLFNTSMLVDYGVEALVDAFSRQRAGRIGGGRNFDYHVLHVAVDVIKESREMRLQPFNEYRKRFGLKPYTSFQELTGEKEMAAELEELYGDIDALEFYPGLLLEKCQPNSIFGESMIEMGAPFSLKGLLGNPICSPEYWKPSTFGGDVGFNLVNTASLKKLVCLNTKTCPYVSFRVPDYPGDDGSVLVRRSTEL

[3] = Cmax in rat at 10 mg/kg; assay type: ADME, organism-based; design: dose 10 mg/kg; details: in vivo
Rattus norvegicus [4] = test: Anti-inflammatory activity in Dawley rats by carrageenan-induced rat paw edema at a dose of 30 mg/kg by oral administration; assay type: functional
Rattus norvegicus [5] = test: Anti-inflammatory activity in Dawley rats by carrageenan-induced rat paw edema at a dose of 3 mg/kg by oral administration; assay type: functional
[6] = Tmax in rat at 10 mg/kg; assay type: ADME, organism-based; design: dose 10 mg/kg; details: in vivo
Rattus norvegicus [7] = test: Anti-inflammatory activity in Dawley rats by carrageenan-induced rat paw edema at a dose of 10 mg/kg by oral administration; assay type: functional
[8] = Half-life period in rat at 10 mg/kg; assay type: ADME, organism-based; design: dose 10 mg/kg; details: in vivo
[9] = biological target: T3, Prostaglandin G/H synthase 2 (Mus musculus) (UniProt Q05769); test: In vitro percentage inhibition against Prostaglandin G/H synthase 2 using freshly harvested mouse peritoneal macrophages at 10 ug/mL concentration
T3 sequence (whole entry): T1 sequence (Q05769 whole entry)

Rattus norvegicus [10] = test: Anti-inflammatory activity in Dawley rats by carrageenan-induced rat paw edema at a dose of 3 mg/kg; assay type: functional
Rattus norvegicus [11] = test: Anti-inflammatory activity in Dawley rats by carrageenan-induced rat paw edema at a dose of 30 mg/kg; assay type: functional
[12] = biological target: T2, Prostaglandin G/H synthase 1 (Mus musculus); test: In vitro percentage inhibition against using freshly harvested mouse peritoneal macrophages Prostaglandin G/H synthase 1 at 10 ug/mL concentration
[13] = biological target: T3, Prostaglandin G/H synthase 2 (Mus musculus); test: In vitro percentage inhibition against Prostaglandin G/H synthase 2 using freshly harvested mouse peritoneal macrophages at 3 ug/mL concentration

Row | SMILES | IC50 [1] [nM] | inhibition [2] [%] | also measured
1 | CS(=O)(=O)c1ccc(-c2oc3ccccc3c(=O)c2-c2cccc(Cl)c2)cc1 | 365 | < 5 | –
2 | CS(=O)(=O)c1ccc(-c2oc3ccccc3c(=O)c2-c2ccc(F)cc2)cc1 | 203 | < 5 | –
3 | COc1ccc(-c2c(-c3ccc(S(N)(=O)=O)cc3)oc3ccccc3c2=O)cc1 | 393 | 84 | –
4 | CS(=O)(=O)c1ccc(-c2oc3ccccc3c(=S)c2-c2ccccc2F)cc1 | 195 | < 5 | –
5 | CS(=O)(=O)c1ccc(-c2oc3ccccc3c(=O)c2-c2ccccc2F)cc1 | 76.1 | < 5 | –
6 | CS(=O)(=O)c1ccc(-c2oc3ccccc3c(=O)c2-c2cccc(F)c2)cc1 | 532 | < 5 | –
7 | CS(=O)(=O)c1ccc(-c2oc3ccc(F)cc3c(=O)c2-c2cccnc2)cc1 | 1260 | 12 | Cmax [3]: 6900 ng/mL; inhibition in vivo at 30 mg/kg (Rattus norvegicus [4]): 41%; inhibition in vivo at 3 mg/kg (Rattus norvegicus [5]): 20%; Tmax [6]: 5 h; inhibition in vivo at 10 mg/kg (Rattus norvegicus [7]): 26%; half-life [8]: 7.4 h
8 | COc1ccc(-c2c(-c3ccc(S(C)(=O)=O)cc3)oc3ccccc3c2=O)cc1 | 517 | < 5 | –
9 | COc1ccc(-c2c(-c3ccc(S(C)(=O)=O)cc3)oc3ccccc3c2=S)cc1 | 142 | < 5 | –
10 | CS(=O)(=O)c1ccc(-c2oc3ccccc3c(=O)c2-c2ccc(Cl)c(Cl)c2)cc1 | 269 | < 5 | –
11 | Cn1cc(-c2c(-c3ccc(S(C)(=O)=O)cc3)oc3ccccc3c2=O)cn1 | – | < 5 | inhibition [9]: 13%
12 | CS(=O)(=O)c1ccc(-c2oc3ccccc3c(=O)c2-c2ccc(Cl)cc2Cl)cc1 | 359 | < 5 | –
13 | CS(=O)(=O)c1ccc(-c2oc3ccccc3c(=O)c2-c2ccc(Cl)cc2)cc1 | – | < 5 | –
14 | CS(=O)(=O)c1ccc(-c2oc3ccccc3c(=O)c2-c2cccnc2)cc1 | – | 13 | inhibition in vivo at 3 mg/kg (Rattus norvegicus [10]): 18%; inhibition in vivo at 30 mg/kg (Rattus norvegicus [11]): 41%
15 | CS(=O)(=O)c1ccc(-c2oc3ccccc3c(=O)c2-c2ccccn2)cc1 | – | 17 | inhibition [9]: 44%
16 | CS(=O)(=O)c1ccc(-c2oc3ccccc3c(=O)c2-c2cc3ccccc3s2)cc1 | 324 | < 5 | –
17 | NS(=O)(=O)c1ccc(-c2oc3ccccc3c(=O)c2-c2ccc(F)cc2)cc1 | 126 | 67 | –
18 | CSc1ccc(-c2c(-c3ccc(S(N)(=O)=O)cc3)oc3ccccc3c2=O)cc1 | 283 | 90 | –
19 | NS(=O)(=O)c1ccc(-c2oc3ccccc3c(=O)c2-c2ccccc2F)cc1 | 177 | 60 | –
20 | CS(=O)(=O)c1ccc(-c2oc3ccccc3c(=O)c2-c2cccc3ccccc23)cc1 | 3800 | < 5 | –
21 | CS(=O)(=O)c1ccc(-c2oc3ccccc3c(=O)c2-c2ccncc2)cc1 | – | < 5 | inhibition [9]: 24%
22 | CS(=O)(=O)c1ccc(-c2oc3ccccc3c(=S)c2-c2ccc(F)cc2)cc1 | 73.1 | < 5 | –
23 | CS(=O)(=O)c1ccc(-c2oc3ccccc3c(=O)c2-c2ccccc2)cc1 | 930 | < 5 | –
24 | NS(=O)(=O)c1ccc(-c2oc3ccccc3c(=O)c2-c2ccc3c(c2)OCO3)cc1 | 925 | – | inhibition [12]: 75%
25 | CS(=O)(=O)c1ccc(-c2oc3ccccc3c(=S)c2-c2ccc(Cl)c(Cl)c2)cc1 | 520 | < 5 | –
26 | CS(=O)(=O)c1ccc(-c2oc3ccccc3c(=S)c2-c2ccccc2)cc1 | 102 | < 5 | –
27 | CS(=O)(=O)c1ccc(-c2oc3ccccc3c(=O)c2-c2cc(Cl)cc(Cl)c2)cc1 | – | < 5 | inhibition [13]: 7%
28 | NS(=O)(=O)c1ccc(-c2oc3ccccc3c(=O)c2-c2ccccc2)cc1 | 106 | 61 | –
29 | COc1ccc(-c2c(-c3ccc(S(C)(=O)=O)cc3)oc3ccccc3c2=O)cn1 | 2310 | 18 | –
30 | Cc1ccccc1-c1c(-c2ccc(S(C)(=O)=O)cc2)oc2ccccc2c1=O | 948 | < 5 | –
